These results are taken from paper PMC4744035, “In Vivo, In Vitro, and In Silico Characterization of Peptoids as Antimicrobial Agents” (PLoS ONE, 2016).

Read-outs that look alike come from different tables or passages of the source. Ends that are not written are not given here.

The subject of experiment [1] is LPS (P. aeruginosa). Also noted: method as in PMID 8702613. The following applies: divalent cation; read-out: I50 (affinity for LPS); cited from earlier work.
Experiment [2] deals with diabetic foot ulcer infection. Also noted: method as in PMID 18310135. Conditions: Phase III, diabetic foot ulcers; cited from earlier work.
Another experiment has as its system P. maltophilia ATCC13637. The experiment in a line: microbe, parasite or virus in culture. Conditions: ATCC13637. The gist of the method: (§1)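 Agents were diluted serially at 10x in acetic acid/BSA, added to Mueller Hinton medium, then inoculated with bacteria at 2–7 x 10^5 CFU/mL. Plates were incubated overnight at 37°C and scored for growth.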
Experiment [3] concerns P. aeruginosa H1027 (MDR). The experiment in a line: microbe, parasite or virus in culture. Conditions: H1027 (MDR). Put shortly: as §1
In experiment [4] the test system is K. pneumonia 63575 (ESBL). The experiment in a line: microbe, parasite or virus in culture. Put shortly:
as §1

A further experiment concerns E. faecalis W61950 (VRE). Nature of the experiment: microbe, parasite or virus in culture. Conditions: W61950 (VRE). The gist of the method: as §1
Experiment [5] relates to K. pneumonia 61962 (ESBL). Nature of the experiment: microbe, parasite or virus in culture. Put shortly:
as §1

The test system of experiment [6] is P. aeruginosa H103 (wild type). Nature of the experiment: microbe, parasite or virus in culture. The following applies: H103 (wild type). Put shortly:
as §1

Experiment [7] concerns E. cloacae 218R Class C β-lactamase. Nature of the experiment: microbe, parasite or virus in culture. The following applies: 218R Class C β-lactamase. The gist of the method: as §1
The subject of the next experiment is E. coli 63103 (ESBL). Nature of the experiment: microbe, parasite or virus in culture. Conditions: 63103 (ESBL). Put shortly: as §1
The next experiment concerns E. coli 64771 (ESBL). Nature of the experiment: microbe, parasite or virus in culture. Conditions: 64771 (ESBL). The gist of the method:
as §1

The next experiment relates to E. faecium mic80 (VRE). Nature of the experiment: microbe, parasite or virus in culture. Conditions: mic80 (VRE). The gist of the method: as §1
A further experiment has as its system S. aureus C623 (MRSA). The experiment in a line: microbe, parasite or virus in culture. Conditions: C623. Put shortly:
as §1

A further experiment deals with E. faecalis F43559 (VRE). The experiment in a line: microbe, parasite or virus in culture. Conditions: F43559 (VRE). Put shortly: as §1
In experiment [8] the test system is P. aeruginosa LES400 (MDR). The experiment in a line: microbe, parasite or virus in culture. Conditions: LES400 (MDR). Put shortly: as §1
A further experiment concerns P. aeruginosa 9 (MDR). The experiment in a line: microbe, parasite or virus in culture. Conditions: 9 (MDR). Put shortly:
as §1

A further experiment has as its system P. aeruginosa 198 (MDR). The experiment in a line: microbe, parasite or virus in culture. The following applies: 198 (MDR). The gist of the method:
as §1

A further experiment concerns E. faecium T62764 (VRE). Nature of the experiment: microbe, parasite or virus in culture. Conditions: T62764 (VRE). Put shortly:
as §1

Another experiment relates to E. faecalis ATCC29212. The experiment in a line: microbe, parasite or virus in culture. Conditions: ATCC29212. Put shortly:
as §1

For the next experiment, the system named is S. aureus ATCC25923. Nature of the experiment: microbe, parasite or virus in culture. Conditions: ATCC25923. Put shortly: as §1
For the next experiment, the system named is P. aeruginosa 213 (MDR). The experiment in a line: microbe, parasite or virus in culture. Conditions: 213 (MDR). Put shortly:
as §1

Experiment [9] concerns LPS (P. aeruginosa). The experiment in a line: Dansyl polymyxin B (DPX) displacement assay, LPS binding. Conditions: DPX bound to P. aeruginosa LPS; for IC50: read-out: I50 (concentration that displaces 50% of LPS-bound DPX). As for the experimental part:
The Dansyl polymyxin B (DPX) displacement assay was carried out as described earlier. In brief, the fluorescence of DPX (Invitrogen) bound to LPS (P. aeruginosa) was measured by using a Luminescence spectrometer LS 50B (Perkin Elmer) with excitation and emission-wavelengths of 340 nm and 485 nm, respectively. A predetermined amount of DPX, resulting in 90% saturation of LPS, was added to 1 mL of 3 μg/mL of purified LPS. Small aliquots (5 μL of 1 μg/mL) of test compounds were added under constant stirring in the cuvette, and the displacement of DPX was measured for 30–60 seconds as a decrease in fluorescence. The process was repeated until maximum displacement was reached.
The ability of other cationic molecules to displace DPX molecules bound to LPS (monitored by reduction in fluorescence) assesses their relative ability to bind to LPS [33, 34]. While the highly cationic MSI-78 (+10 charge) displaced 100% of bound DPX (equivalent to that of polymyxin B), peptoid 1 and MX-226 displaced 71% and 73% of bound DPX, respectively. […] A second parameter characterizing the LPS/polycation interaction is the I50, which is defined as the concentration of a polycation that displaces 50% of LPS-bound DPX. The I50 is inversely related to the relative affinity of each molecule for binding sites on LPS.

Experiment [10] deals with 20 bacterial strains (13 Gram-negative, 7 Gram-positive). As for the experimental part:
The MICs of test agents were measured using a modified broth micro-dilution method in Difco Mueller Hinton medium, on a panel of bacterial pathogens that were both susceptible and resistant to common antibiotics (S1 File). Briefly, serial dilutions were performed in 0.01% acetic acid containing 0.2% bovine serum albumin at 10-fold the desired final concentration. Ten μL of the 10-fold concentrated test reagents were added to each well of a 96-well polypropylene microtitre plate containing 90 μL of Mueller Hinton media per well. Bacteria were added to the plate from an overnight culture at a final concentration of 2–7 x 10^5 CFU/mL and incubated overnight at 37°C. The MIC is defined as the concentration at which no growth was observed.
Screening of peptoid antimicrobial activity against a panel of multidrug resistant superbugs was done according to the protocol described in the manuscript. The bacterial strains used in this panel included; P. aeruginosa PAO1 strain H103 [1], P. maltophilia ATCC#13637, S. aureus ATCC#25923 [1], E. faecalis ATCC#29212 [2], and E. cloacae 218R, constitutively expressing Class C chromosomal β-lactamase, were from the Hancock lab strains collection. An MRSA clinical isolate was kindly provided by Anthony Chow (Vancouver General Hospital, Vancouver, Canada). Two Klebsiella pneumoniae and two E. coli clinical isolates expressing extended spectrum β-lactamases (ESBL) were kindly provided by George Zhanel (Health Sciences Centre, Winnipeg, Canada). Vancomycin-resistant clinical isolates of Enterococcus faecalis and E. faecium were obtained from Ana M. Paccagnella (BC Centre for Disease Control, Vancouver, Canada). Three clinical isolates (#9, #198 and #213) of multi-drug resistant P. aeruginosa, were kindly provided by Carlos Kiffer (University of São Paulo, Brazil). […] Three P. aeruginosa clinical isolates of the Liverpool epidemic strain (LES) (H1027, H1030 and LES400) were all kindly provided by Craig Winstanley (University of Liverpool, UK). […] All tested bacterial strains were categorized as biohazard level 2 pathogens.

Experiment [11] has as its system bowel perforation and sepsis. Also noted: method as in PMID 15294887. The following applies: cited from earlier work.
Experiment [12] deals with MDR P. aeruginosa (polymyxin B resistant isolate). Also noted: method as in PMID 19635950. The following applies: MDR P. aeruginosa isolate most resistant to peptoid 1; cited from earlier work.

With `[Mg+2]` [Mg^2+], the IC50 with LPS (P. aeruginosa) [1] is 620 µM.
For the compound “GIGKFLKKAKKFGKAFVKILKK-NH2 (C-terminus assumed) [MSI-78, pexiganan, reference compound]”, the “patients in whom infection was eliminated or significantly reduced” value in experiment [2] was “over 90%”. In addition, the MIC is 2 µg/mL against P. maltophilia ATCC13637; 2 µg/mL in [3]; 8 µg/mL in experiment [4]; 256 µg/mL against E. faecalis W61950 (VRE); 32 µg/mL in experiment [5]; 1 µg/mL in experiment [6]. Moreover, the MIC in experiment [7] turned out to be 2 µg/mL; against E. coli 63103 (ESBL), 16 µg/mL; in the experiment on E. coli 64771 (ESBL), 2 µg/mL; against E. faecium mic80 (VRE), 4 µg/mL; with S. aureus C623 (MRSA) it was 16 µg/mL; with E. faecalis F43559 (VRE) it was 16 µg/mL. For the same compound, the MIC in [8] came to 4 µg/mL; in the experiment on P. aeruginosa 9 (MDR) it was 16 µg/mL; against P. aeruginosa 198 (MDR) it was 4 µg/mL; against E. faecium T62764 (VRE) it was 8 µg/mL; against E. faecalis ATCC29212, 16 µg/mL; against S. aureus ATCC25923 it was 64 µg/mL. In the experiment on P. aeruginosa 213 (MDR), this compound came in with an MIC of 8 µg/mL. Besides, the “bound DPX displaced (maximum displacement)” value with LPS (P. aeruginosa) [9] was 100%. In addition, the IC50 at LPS (P. aeruginosa) [9] was found to be 1.4 µM. For the same compound, the “MICs, range against all Gram-positive strains tested” value in [10] was in the range of 4 to 256 µg/mL. Moreover, in [10], the “median MIC against all Gram-positive strains tested” value was determined as 16 µg/mL. Also, the endotoxin plasma levels result in experiment [11] (rat model of sepsis) was “reduce endotoxin plasma levels”. In addition, the “reduction of bacterial counts” value in [11] (rat, caecal ligation and puncture model) is listed as “four orders of magnitude”.
As to polymyxin B, in the experiment on LPS (P. aeruginosa) [9], the “bound DPX displaced (maximum displacement)” value was found to be 100% and the IC50 came out at 3.2 µM. Besides, in [12], the MIC is 64 µg/mL.
